As a reminder, the IC50 is the concentration that gives 50% inhibition. Read a low IC50 as greater potency in that assay. The Ki is a dissociation constant, usually derived from enzyme kinetics or from competition with a known ligand.

The source of these data is article PMC6114080 (International Journal for Parasitology: Drugs and Drug …, 2018).

Holding throughout (assay type): biochemical
The target in assay [1] is T1, CpGPI (MBP-CpGPI) (Cryptosporidium parvum, UniProt Q5CTF8).
T1 sequence (Q5CTF8 1-567): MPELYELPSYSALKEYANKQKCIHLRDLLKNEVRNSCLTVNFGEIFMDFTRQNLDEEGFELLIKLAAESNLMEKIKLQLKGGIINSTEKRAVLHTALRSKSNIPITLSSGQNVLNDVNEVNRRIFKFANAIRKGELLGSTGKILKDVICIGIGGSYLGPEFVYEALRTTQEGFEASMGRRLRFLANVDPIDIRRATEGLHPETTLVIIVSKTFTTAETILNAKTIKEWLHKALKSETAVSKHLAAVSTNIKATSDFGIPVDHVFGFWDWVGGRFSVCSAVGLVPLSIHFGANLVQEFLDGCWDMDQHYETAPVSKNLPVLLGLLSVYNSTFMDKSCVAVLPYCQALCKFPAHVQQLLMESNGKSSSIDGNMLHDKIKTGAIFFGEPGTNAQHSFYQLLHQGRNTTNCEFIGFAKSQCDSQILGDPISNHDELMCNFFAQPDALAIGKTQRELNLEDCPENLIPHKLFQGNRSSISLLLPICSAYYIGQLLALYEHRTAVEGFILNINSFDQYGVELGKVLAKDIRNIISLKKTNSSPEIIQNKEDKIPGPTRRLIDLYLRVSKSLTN
The assay can be described thus: G6PDH-coupled NADH assay at […] nm.

In assay [2] the target is T1, CpGPI (MBP-CpGPI). The experiment in a line: G6PDH-coupled NADH assay at […] nm, mixed noncompetitive fit.
In the next assay the target is HsGPI (Homo sapiens, UniProt P06744). The assay can be described thus: G6PDH-coupled NADH assay at […] nm.

The molecule `O=C[C@H](O)[C@H](O)COP(=O)(O)O` [erythrose-4-phosphate] returned a half-inhibitory concentration (IC50) against CpGPI (MBP-CpGPI) [1] of 132 µM.
The molecule `O=c1c2ccccc2[se]n1-c1ccccc1` [ebselen, 2-phenyl-1,2-benzisoselenazol-3(2H)-one] returned an inhibition constant (Ki) on CpGPI (MBP-CpGPI) [2] of 36.3 µM. The half-inhibitory concentration (IC50) against HsGPI was above 400 µM; on CpGPI (MBP-CpGPI) [1], 8.33 µM.
